The values that follow come from patent publication US7304062B2, “Peroxisome proliferator activated receptor alpha agonists” (Eli Lilly and Company, priority 2000, dated 2007).

One may read the melting point as the temperature, or range, at which the solid turns liquid.

In turn, `CCCn1c(CCCc2ccc(OC(C)(C)C(=O)O)cc2)nn(Cc2ccc(C)cc2)c1=O` yielded a melting point of 94 to 96.5 °C.
Take `CCCn1c(CCCc2ccc(OC)cc2)nn(Cc2ccc(C)cc2)c1=O` [Example 118, 5-[3-(4-Methoxyphenyl)-propyl]-2-(4-methylbenzyl)-4-propyl-2,4-dihydro[1,2,4]tria-zol-3-one]: the melting point lay in the range of 86.5 to 88.2 °C.
